Laboratory results as given in ChEMBL document CHEMBL5038665, “Identification of the Benzoimidazole Compound as a Selective FLT3 Inhibitor by Cell-Based High-Throughput Screening of a Diversity Library” (J Med Chem, 2022).

Key:
[1] = Antiproliferative activity against mouse BaF3 cells expressing wild type FLT3 assessed as reduction in cell viability measured after 72 hrs by MTS assay; format: toxicity, cell-based
[2] = Oral bioavailability in 12 hrs fasted Sprague-Dawley rat at 15 mg/kg by LC-MS analysis; format: ADME, organism-based; conditions: in vivo
[3] = AUC (0-t) in 12 hrs fasted Sprague-Dawley rat at 2 mg/kg, iv measured upto 24 hrs by LC-MS analysis; format: ADME, organism-based; set-up: route intravenous, dose 2 mg/kg, time <=24; conditions: in vivo
[4] = Antitumor activity against mouse Ba/F3 FLT3-ITD cells implanted in Balb/c mouse assessed as increase in survival time at 60 mg/kg, po administered every 24 hrs (Rvb=14 days); format: functional

`COc1cc(CNc2ccc3c(c2)ncn3-c2ccccc2)ccc1OCCO` showed an IC50 at 72 h [1] greater than 400 nM, a bioavailability [2] of 48.2% and an AUC(0-t) at 24 h [3] of 800 ng·h/mL. The Time [4] was 22 days.
